{"source": "paper PMC5823406", "about": "“Vehicle development, pharmacokinetics and toxicity of the anti-invasive agent 4-fluoro-3’,4’,5’-trimethoxychalcone in rodents” (PLoS ONE, 2018)", "key": {"[1]": {"test": "Solubility in vehicles, laser nephelometry", "type": "physicochemical", "procedure": "The solubility of C16 was tested at 10 and 30 mg/mL for the indicated vehicles using laser nephelometry in 96-well plates (BMG LabTech NEPHELOstar microplate reader, BMG LabTech, USA). Solutions were prepared using solubilizing techniques including sonication, heating up to 37 °C and vortex. Solubility data was categorized as soluble (result ≤ +15 of blank), slightly soluble (result between +15 and +25 of blank) or not soluble (result > +25 of blank).\nC16 has low aqueous solubility, which limits the choice of preclinical formulations for in vivo studies. In this work, thirteen vehicles were evaluated for their applicability in single-dose studies (Table 1). For commonly used systems (entries a-e) visual determination of solubility was conducted, while for the more complex systems solubility was assessed by laser nephelometry."}, "Whole blood stability": {"test": "Whole blood stability", "type": "in vitro ADME, rat", "conditions": "for half-life at 1 μM: male, Sprague-Dawley, rat", "procedure": "C16 (1 μM) or vehicle (DMSO) were incubated with fresh rat blood (Sprague Dawley, male) at 37°C at 5 time points in duplicate over a 120-min period. The final DMSO concentration in the incubation was 0.25%. Reactions were terminated following 0, 15, 30, 60 and 120 min by acetonitrile containing internal standard. The sampling plate was centrifuged (3000 rpm, 45 min, 4 °C) and the supernatants from each time point analyzed for parent compound by HPLC-MS/MS. The percentage of parent compound remaining at each time point relative to the 0-min sample was then calculated from HPLC-MS/MS peak area ratios (compound peak area/internal standard peak area).\nC. Stability and metabolism\nFor details on ADME experiments not included underneath , please consult ref. [1].\nC.A. Whole blood stability\nColumn: Kinetex XB-C18 column, 2.6 µm (150 x2.1 mm)\nMobile phase A: H2O + 0.1% v/v Formic Acid\nMobile phase B: MeCN + 0.1% v/v Formic Acid\nAutosampler syringe volume: 100 µL\nWeak wash: MeOH:H2O 1:9 v/v\nStrong wash: MeOH:H2O 95:5 v/v\nTable K. Gradient program.\nMass spectrometric conditions\nModel: AB Sciex API5500 QTrap\nMode: Multiple ion monitoring (MIM)\nTable L. MIM (parent to parent transitions).\nThe areas and percentages for the parent and metabolites have been calculated using MIM data where parent to parent transitions have been used, and assume that each metabolite has the same point of ionisation and the sensitivity of the metabolite has not been affected by the biotransformation."}, "[2]": {"test": "Stability test of C16 in 10% Solutol HS-15 / 90% PEG 600", "type": "physicochemical", "procedure": "Solutions of 30 mg/mL and 10 mg/mL of C16 were prepared and stored at room temperature and 4°C for 24 h. The stability of C16 was evaluated at 0, 1, 2, 4, 8 and 24 h after formulation by high-performance liquid chromatography-mass spectrometry/mass spectrometry (HPLC-MS/MS) (electrospray ionization, ESI+) analysis using oxybutynin as an internal standard (IS). Analyte samples were diluted 500x with acetonitrile (ACN)/H2O (20:80). This solution was further diluted 100x with an oxybutynin solution (1 ng/μL in ACN/H2O 20:80), giving a final concentration of 0.6 ng/μL and 0.2 ng/μL, respectively, for HPLC-MS/MS analysis (multiple reaction monitoring scan mode, MRM, see Section A of S1 File for more details). All analyses were performed in triplicates.\nA.A. Vehicles for single-dose studies a. Stability test of C16 in 10% Solutol HS -15 / 90% PEG 600\nQuantification was performed by calculating the ratio of the peak area (counts) of C16 and the IS. Results are expressed as relative differences to the peak ratio at 0 h (%RE, Table A).\nTable A. Stability in 10% Solutol HS -15 / 90% PEG 600: peak ratios.\n10mg/mL at room temperature\n30mg/mL at room temperature\nCV: Coefficient of variation; RE: Difference in peak area relative to indicated time point. […]"}, "[3]": {"test": "Liver microsome stability", "type": "in vitro ADME", "conditions": "liver microsomes (rat, Sprague-Dawley)", "from_the_text": "Table 3 In vitro physicochemical, stability and metabolism data. | column: Value"}}, "note": "Read-outs that look alike come from different tables or passages of the source."}
{"molecule": "COc1cc(C(=O)/C=C/c2ccc(F)cc2)cc(OC)c1OC", "note": "[C16, 4-fluoro-3’,4’,5’-trimethoxychalcone]", "values": [{"measurement": "Solubility of C16 in vehicle: Result", "setting": "[1]; 10% Cremophor EL / 10% EtOH, 10 mg/mL", "value": "Insoluble ^b"}, {"measurement": "Solubility of C16 in vehicle: Result", "setting": "[1]; 10% Cremophor EL / 10% EtOH, 30 mg/mL", "value": "Insoluble ^b"}, {"measurement": "Solubility of C16 in vehicle: Result", "setting": "[1]; 10% DMA / 10% EtOH / 20% PG, 10 mg/mL", "value": "Insoluble ^b"}, {"measurement": "Solubility of C16 in vehicle: Result", "setting": "[1]; 10% DMA / 10% EtOH / 20% PG, 30 mg/mL", "value": "Insoluble ^b"}, {"measurement": "Solubility of C16 in vehicle: Result", "setting": "[1]; 10% Dimethylacetamide (DMA) / 90% PEG 600, 10 mg/mL", "value": "Soluble ^b"}, {"measurement": "Solubility of C16 in vehicle: Result", "setting": "[1]; 10% Dimethylacetamide (DMA) / 90% PEG 600, 30 mg/mL", "value": "Soluble ^b"}, {"measurement": "Solubility of C16 in vehicle: Result", "setting": "[1]; 10% Solutol HS-15 / 90% PEG 600, 10 mg/mL", "value": "Soluble ^b"}, {"measurement": "Solubility of C16 in vehicle: Result", "setting": "[1]; 10% Solutol HS-15 / 90% PEG 600, 30 mg/mL", "value": "Soluble ^b"}, {"measurement": "Solubility of C16 in vehicle: Result", "setting": "[1]; 10%DMA / 20%PG / 40% PEG 400, 10 mg/mL", "value": "Insoluble ^b"}, {"measurement": "Solubility of C16 in vehicle: Result", "setting": "[1]; 10%DMA / 20%PG / 40% PEG 400, 30 mg/mL", "value": "Insoluble ^b"}, {"measurement": "Solubility of C16 in vehicle: Result", "setting": "[1]; 20% PEG 400 / 10% Cremophor EL, 10 mg/mL", "value": "Insoluble ^b"}, {"measurement": "Solubility of C16 in vehicle: Result", "setting": "[1]; 20% PEG 400 / 10% Cremophor EL, 30 mg/mL", "value": "Insoluble ^b"}, {"measurement": "Solubility of C16 in vehicle: Result", "setting": "[1]; 40% PEG 400 / 10% EtOH, 10 mg/mL", "value": "Insoluble ^b"}, {"measurement": "Solubility of C16 in vehicle: Result", "setting": "[1]; 40% PEG 400 / 10% EtOH, 30 mg/mL", "value": "Insoluble ^b"}, {"measurement": "Solubility of C16 in vehicle: Result", "setting": "[1]; 100% Corn oil, 10 mg/mL", "value": "Insoluble ^b"}, {"measurement": "Solubility of C16 in vehicle: Result", "setting": "[1]; 100% Corn oil, 30 mg/mL", "value": "Insoluble ^b"}, {"measurement": "remaining at 15 min, 1 µM", "setting": "Whole blood stability; fresh whole blood, male Sprague-Dawley rat blood, 15 min, read-out: Compound remaining (% of 0 min)", "value": 16.5, "unit": "%"}, {"measurement": "remaining at 30 min, 1 µM", "setting": "Whole blood stability; fresh whole blood, male Sprague-Dawley rat blood, 30 min, read-out: Compound remaining (% of 0 min)", "value": 13.8, "unit": "%"}, {"measurement": "remaining at 60 min, 1 µM", "setting": "Whole blood stability; fresh whole blood, male Sprague-Dawley rat blood, 60 min, read-out: Compound remaining (% of 0 min)", "value": 10.6, "unit": "%"}, {"measurement": "remaining at 120 min, 1 µM", "setting": "Whole blood stability; fresh whole blood, male Sprague-Dawley rat blood, 120 min, read-out: Compound remaining (% of 0 min)", "value": 7, "unit": "%"}, {"measurement": "Intrinsic clearance", "setting": "Whole blood stability; male Sprague-Dawley rat blood, Both Isomers integrated", "value": 120, "unit": "µL/min/mL blood"}, {"measurement": "half-life at 1 μM", "setting": "Whole blood stability; fresh whole blood, blood (rat, Sprague-Dawley), 1 μM, read-out: Half-life", "value": 6, "unit": "min"}, {"measurement": "half-life at 1 μM", "setting": "Whole blood stability; fresh whole blood, male Sprague-Dawley rat blood, Both Isomers integrated, read-out: t1/2", "value": 5.76, "unit": "min"}, {"measurement": "half-life at 1 μM", "setting": "Whole blood stability; fresh whole blood, male Sprague-Dawley rat blood, E-isomer only, read-out: t1/2", "value": 8.06, "unit": "min"}, {"measurement": "%RE to 0 h (peak ratio C16/IS)", "setting": "[2]; 10mg/mL at 4 °C, 1 h", "value": 1.2, "unit": "%"}, {"measurement": "%RE to 0 h (peak ratio C16/IS)", "setting": "[2]; 10mg/mL at 4 °C, 2 h", "value": -2.9, "unit": "%"}, {"measurement": "%RE to 0 h (peak ratio C16/IS)", "setting": "[2]; 10mg/mL at 4 °C, 4 h", "value": 1.4, "unit": "%"}, {"measurement": "%RE to 0 h (peak ratio C16/IS)", "setting": "[2]; 10mg/mL at 4 °C, 8 h", "value": -0.6, "unit": "%"}, {"measurement": "%RE to 0 h (peak ratio C16/IS)", "setting": "[2]; 10mg/mL at 4 °C, 24 h", "value": -1.4, "unit": "%"}, {"measurement": "%RE to 0 h (peak ratio C16/IS)", "setting": "[2]; 10mg/mL at room temperature, 1 h", "value": 1.8, "unit": "%"}, {"measurement": "%RE to 0 h (peak ratio C16/IS)", "setting": "[2]; 10mg/mL at room temperature, 2 h", "value": 1.8, "unit": "%"}, {"measurement": "%RE to 0 h (peak ratio C16/IS)", "setting": "[2]; 10mg/mL at room temperature, 4 h", "value": -1.0, "unit": "%"}, {"measurement": "%RE to 0 h (peak ratio C16/IS)", "setting": "[2]; 10mg/mL at room temperature, 8 h", "value": 1.4, "unit": "%"}, {"measurement": "%RE to 0 h (peak ratio C16/IS)", "setting": "[2]; 10mg/mL at room temperature, 24 h", "value": 2.9, "unit": "%"}, {"measurement": "%RE to 0 h (peak ratio C16/IS)", "setting": "[2]; 30mg/mL at 4°C, 1 h", "value": 4.8, "unit": "%"}, {"measurement": "%RE to 0 h (peak ratio C16/IS)", "setting": "[2]; 30mg/mL at 4°C, 2 h", "value": -6.1, "unit": "%"}, {"measurement": "%RE to 0 h (peak ratio C16/IS)", "setting": "[2]; 30mg/mL at 4°C, 4 h", "value": 3.5, "unit": "%"}, {"measurement": "%RE to 0 h (peak ratio C16/IS)", "setting": "[2]; 30mg/mL at 4°C, 8 h", "value": 5.0, "unit": "%"}, {"measurement": "%RE to 0 h (peak ratio C16/IS)", "setting": "[2]; 30mg/mL at 4°C, 24 h", "value": 1.6, "unit": "%"}, {"measurement": "%RE to 0 h (peak ratio C16/IS)", "setting": "[2]; 30mg/mL at room temperature, 1 h", "value": -0.6, "unit": "%"}, {"measurement": "%RE to 0 h (peak ratio C16/IS)", "setting": "[2]; 30mg/mL at room temperature, 2 h", "value": 0.2, "unit": "%"}, {"measurement": "%RE to 0 h (peak ratio C16/IS)", "setting": "[2]; 30mg/mL at room temperature, 4 h", "value": -3.1, "unit": "%"}, {"measurement": "%RE to 0 h (peak ratio C16/IS)", "setting": "[2]; 30mg/mL at room temperature, 8 h", "value": -5.4, "unit": "%"}, {"measurement": "%RE to 0 h (peak ratio C16/IS)", "setting": "[2]; 30mg/mL at room temperature, 24 h", "value": 0.3, "unit": "%"}, {"measurement": "Stability of solutions in 10% Solutol HS-15 / 90% PEG 600", "setting": "[2]; 10 and 30 mg/mL, room temperature (20–25 °C) and 4°C over 24 h", "value": "stable"}, {"measurement": "half-life at 0.1 μM", "setting": "[3]", "value": 20, "unit": "min"}, {"measurement": "microsomal CLint at 0.1 μM", "setting": "[3]; read-out: Intr. clearance", "value": 339, "unit": "µL/min/mg"}]}
